Assay results reported in patent US12655116B2, “Substituted isophthalic acid diamides” (Bayer Aktiengesellschaft, priority 2020, dated 2026).

Tests used:
ALOMY [1] = experiment: Pre-emergence herbicidal action against ALOMY; assay type: in vivo, Alopecurus myosuroides; conditions: 80 g/ha, pre-emergence, scored visually after 3 weeks vs untreated controls (100% = plants have died, 0% = like control plants)
Procedure, shortened: (§1)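 Greenhouse pots of sandy loam held seeds covered with soil, onto which the compound was applied before emergence. An aqueous suspension or emulsion of WP or EC was used at 600 to 800 l/ha with 0.2% wetting agent. Percent damage was judged visually at 3 weeks.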

DIGSA [2] = experiment: Pre-emergence herbicidal action against DIGSA; assay type: in vivo, Digitaria sanguinalis
Procedure, shortened: as §1

DIGSA [3] = experiment: Post-emergence herbicidal action against DIGSA; assay type: in vivo, Digitaria sanguinalis; conditions: for Post-emergence action against DIGSA: 20 g/ha
Procedure, shortened: (§2)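 Foliar application at one-leaf stage of formulated test compounds, aqueous spray at 600–800 l/ha with 0.2% wetting agent. Greenhouse, optimal conditions, ~3 weeks; damage scored visually in % relative to untreated plants.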

ALOMY [4] = experiment: Post-emergence herbicidal action against ALOMY; assay type: in vivo, Alopecurus myosuroides; conditions: dosage 20 g/ha, visual assessment about 3 weeks after treatment vs untreated controls
Procedure, shortened: as §2

ECHCG [5] = experiment: Post-emergence herbicidal action against ECHCG; assay type: in vivo, Echinochloa crus-galli
Procedure, shortened: as §2

VIOTR [6] = experiment: Pre-emergence herbicidal action against VIOTR; assay type: in vivo, Viola tricolor
Procedure, shortened: as §1

VERPE [7] = experiment: Pre-emergence herbicidal action against VERPE; assay type: in vivo, Veronica persica; conditions: dosage 80 g/ha
Procedure, shortened: as §1

AMARE [8] = experiment: Pre-emergence herbicidal action against AMARE; assay type: in vivo, Amaranthus retroflexus
Procedure, shortened: as §1

VERPE [9] = experiment: Post-emergence herbicidal action against VERPE; assay type: in vivo, Veronica persica; conditions: 20 g/ha
Procedure, shortened: as §2

AVEFA = experiment: Pre-emergence herbicidal action against AVEFA; assay type: in vivo, Avena fatua; conditions: 80 g/ha, pre-emergence
Procedure, shortened: as §1

MATIN = experiment: Pre-emergence herbicidal action against MATIN; assay type: in vivo, Matricaria inodora
Procedure, shortened: as §1

AMARE [10] = experiment: Post-emergence herbicidal action against AMARE; assay type: in vivo, Amaranthus retroflexus; conditions: 20 g/ha, visual assessment about 3 weeks after treatment, 100% = plants have died, 0% = like control plants
Procedure, shortened: as §2

ABUTH [11] = experiment: Pre-emergence herbicidal action against ABUTH; assay type: in vivo, Abutilon theophrasti; conditions: for Pre-emergence action against ABUTH (herbicidal activity): 80 g/ha, scored visually after 3 weeks vs untreated controls (100% = plants have died, 0% = like control plants); for Pre-emergence action against ABUTH (herbicidal activity in percent): dosage 20 g/ha, scored visually after 3 weeks vs untreated controls, 100% = plants have died, 0% = like control plants
Procedure, shortened: as §1

ECHCG [12] = experiment: Pre-emergence herbicidal action against ECHCG; assay type: in vivo, Echinochloa crus-galli
Procedure, shortened: as §1

SETVI [13] = experiment: Pre-emergence herbicidal action against SETVI; assay type: in vivo, Setaria viridis
Procedure, shortened: as §1

PHBPU [14] = experiment: Pre-emergence herbicidal action against PHBPU; assay type: in vivo, Pharbitis purpurea; conditions: dosage 80 g/ha
Procedure, shortened: as §1

PHBPU [15] = experiment: Post-emergence herbicidal action against PHBPU; assay type: in vivo, Pharbitis purpurea
Procedure, shortened: as §2

VIOTR [16] = experiment: Post-emergence herbicidal action against VIOTR; assay type: in vivo, Viola tricolor; conditions: 20 g/ha
Procedure, shortened: as §2

ABUTH [17] = experiment: Post-emergence herbicidal action against ABUTH; assay type: in vivo, Abutilon theophrasti; conditions: visual assessment about 3 weeks after treatment vs untreated controls
Procedure, shortened: as §2

SETVI [18] = experiment: Post-emergence herbicidal action against SETVI; assay type: in vivo, Setaria viridis; conditions: dosage 20 g/ha
Procedure, shortened: as §2

[19] = 20 g/ha, scored visually after 3 weeks vs untreated controls, 100% = plants have died, 0% = like control plants
[20] = 80 g/ha, scored visually after 3 weeks vs untreated controls (100% = plants have died, 0% = like control plants)

Structure (SMILES) | Pre-emergence action against ALOMY (herbicidal activity) (ALOMY [1]) | Pre-emergence action against DIGSA in % (DIGSA [2]; dosage 20 g/ha) | Pre-emergence action against DIGSA in % (DIGSA [2]; dosage 80 g/ha) | Post-emergence action against DIGSA (DIGSA [3]) | Post-emergence action against ALOMY in % (ALOMY [4]) | Post-emergence action against ECHCG in % (ECHCG [5]; dosage 5 g/ha) | Post-emergence action against ECHCG in % (ECHCG [5]; dosage 20 g/ha) | Pre-emergence action against VIOTR in % (VIOTR [6]; dosage 20 g/ha) | Pre-emergence action against VIOTR in % (VIOTR [6]; dosage 80 g/ha) | Pre-emergence action against VERPE in % (VERPE [7]) | Pre-emergence action against AMARE in % (AMARE [8]; [19]) | Pre-emergence action against AMARE in % (AMARE [8]; [20]) | Post-emergence action against VERPE in % (VERPE [9]) | Pre-emergence action against MATIN in % (MATIN; dosage 20 g/ha) | Pre-emergence action against MATIN in % (MATIN; dosage 80 g/ha) | Post-emergence action at 20 g/ha against AMARE in % (AMARE [10]) | Pre-emergence action against ABUTH (herbicidal activity) (ABUTH [11]) | Pre-emergence action against ECHCG in % (ECHCG [12]; 80 g/ha) | Pre-emergence action against SETVI in % (SETVI [13]; dosage 80 g/ha) | Pre-emergence action against PHBPU in % (PHBPU [14]) | also measured
Cn1nnnc1NC(=O)c1ccc(C(F)F)c(C(=O)NCC(F)F)c1Br [Example 1-230] | 90% | 90% | 100% | 90% | 90% | 80% | 80% | 100% | 100% | 100% | 100% | 100% | 80% | 90% | 100% | 100% | 100% | 90% | 100% | 90% | Pre-emergence action against AVEFA in % (AVEFA): 90%; Pre-emergence action against ABUTH (herbicidal activity in percent) (ABUTH [11]): 90%; Pre-emergence action against SETVI in % (SETVI [13]; dosage 20 g/ha): 90%
Cn1nnnc1NC(=O)c1ccc(C(F)F)c(C(=O)NCC2CC2)c1Br [Example 1-228] | 90% | 100% | 100% | 90% | 90% |  | 80% | 90% | 100% | 90% | 100% | 100% | 90% | 80% | 100% | 90% | 100% | 100% | 100% | 90% | Post-emergence action against DIGSA in % (DIGSA [3]; 5 g/ha): 90%; Post-emergence action against PHBPU in % (PHBPU [15]; dosage 5 g/ha): 80%; Post-emergence action against PHBPU in % (PHBPU [15]; dosage 20 g/ha): 80%; Pre-emergence action against AVEFA in % (AVEFA): 90%; Post-emergence action against VIOTR in % (VIOTR [16]): 80%; Pre-emergence action against ABUTH (herbicidal activity in percent) (ABUTH [11]): 100%; Pre-emergence action against ECHCG in % (ECHCG [12]; 20 g/ha): 90%
COCCNC(=O)c1c(C(F)F)ccc(C(=O)Nc2nnnn2C)c1Cl [Example 1-156] | 90% | 100% | 100% | 90% | 80% | 80% | 90% |  | 100% |  | 100% | 100% | 80% | 90% | 100% | 90% | 100% | 100% | 100% | 80% | Post-emergence action against PHBPU in % (PHBPU [15]; dosage 20 g/ha): 90%; Post-emergence action against ABUTH in % (ABUTH [17]; dosage 5 g/ha): 90%; Post-emergence action against ABUTH in % (ABUTH [17]; dosage 20 g/ha): 90%; Post-emergence action against SETVI in % (SETVI [18]): 80%
